Source: paper PMC11279897, “Isolation of Alpha-Glucosidase Inhibitors from the Panamanian Mangrove Plant Mora oleifera (Triana ex Hemsl.) Ducke” (Pharmaceuticals, 2024)

Tests used:
alpha-glucosidase enzyme = assay: Inhibition of alpha-glucosidase assay (PNPG substrate, 96-well plate); type: biochemical; conditions: enzyme from Saccharomyces cerevisiae
Method: The assay was performed in 96-well plates. Both test samples and the positive control were dissolved in DMSO or MeOH. Test samples (20 μL) were added to their respective wells containing 150 μL of the enzyme (from Saccharomyces cerevisiae purchased from Sigma-Aldrich Co., St. Louis, MO, USA) solution (32 mU/mL), followed by incubation at 37 °C for 7 min. Subsequently, 150 μL of PNPG (4-Nitrophenyl-[…]-D-glucopyranoside, 2 mM) was introduced into each well, and the plate was further incubated at 37 °C for 20 min. The resulting absorbance, corresponding to the p-nitrophenol released during the reaction, was measured at 400 nm. All assays were performed in duplicate. The activity of the samples was calculated as a percentage relative to the control (DMSO or MeOH, instead of the sample solution), using the following equation: %Inhibition=(∆ Acontrol−∆ Asample)/∆ Acontrol×100%
ΔAcontrol: absorbance of the control—absorbance of the blank
ΔAsample: absorbance of the sample—absorbance of the sample blank.
The concentration necessary to achieve a 50% inhibition of enzyme activity (IC50) was calculated through regression analysis. Data obtained from alpha-glucosidase inhibition assays were expressed as the mean ± standard deviation (SD) of three replicates. Statistical analysis was performed using Excel 2019 (Microsoft, Seattle, WA, USA). Finally, a one-way analysis of variance (ANOVA) followed by Tukey’s post-test was used to evaluate possible differences between the means of each data. To determine significant differences, statistical significance was defined as p-values ≤ 0.05 [25].

alpha-glucosidase = assay: Kinetics of alpha-glucosidase inhibition (Lineweaver-Burk plot); type: biochemical, Saccharomyces cerevisiae; conditions: Lineweaver-Burk plots, two inhibitor concentrations, various PNPG concentrations
Method: To determine the mode of inhibition of the compounds, fixed amounts of alpha-glucosidase were incubated with increasing concentrations of PNPG at 37 °C for 15 min, both in the absence and presence of inhibitors. Subsequently, the reactions were stopped, the sample absorbances were measured, and then the values obtained were analyzed using the Lineweaver–Burk plot. For this assay, three evaluations were performed, one in the absence of the inhibitor and the other using different concentrations of the inhibitors (at concentrations equivalent to their respective IC50 values). Again, the evaluations of each compound were performed in triplicate.

Row | SMILES | IC50 (alpha-glucosidase enzyme) | mode of inhibition of alpha-glucosidase (alpha-glucosidase)
1 | C[C@H]1[C@H](C)CC[C@]2(C)CC[C@]3(C)C(=CC[C@@H]4[C@@]5(C)CC[C@H](O)C(C)(C)[C@@H]5CC[C@]43C)[C@H]12 [Compound 3, α-amyrin] | 2130 nM | –
2 | CC[C@H](/C=C/[C@@H](C)[C@H]1CC[C@H]2[C@@H]3CC=C4C[C@@H](O)CC[C@]4(C)[C@H]3CC[C@]12C)C(C)C [Compound 7, stigmasterol] | 163000 nM | reversible competitive inhibition
3 | CC[C@H](CC[C@@H](C)[C@H]1CC[C@H]2[C@@H]3CC=C4C[C@@H](O)CC[C@]4(C)[C@H]3CC[C@]12C)C(C)C [Compound 6, sitosterol] | 18700 nM | reversible competitive inhibition
4 | C=C(C)[C@@H]1CC[C@]2(C)CC[C@]3(C)[C@H](CC[C@@H]4[C@@]5(C)CC[C@H](O)C(C)(C)[C@@H]5CC[C@]43C)[C@@H]12 [Compound 2, lupeol] | 1050 nM | –
5 | C[C@H]1O[C@H](O[C@H]2[C@H](O)[C@@H](O)[C@@H](O[C@H]3[C@H](O)[C@@H](O)C(O)O[C@@H]3CO)O[C@@H]2CO)[C@H](O)[C@@H](O)[C@@H]1N[C@H]1C=C(CO)[C@@H](O)[C@H](O)[C@H]1O (some centres unmarked) [acarbose, reference compound] | – | competitive inhibition
6 | C=C(C)[C@@H]1CC[C@]2(C)CC[C@]3(C)[C@H](CC[C@@H]4[C@@]5(C)CCC(=O)C(C)(C)[C@@H]5CC[C@]43C)[C@@H]12 [Compound 1, lupenone] | 720 nM | reversible competitive inhibition
7 | CCCCCCCCCCCCCCCC(=O)O [Compound 5, palmitic acid] | 240000 nM | –
8 | CC1(C)CC[C@]2(C)CC[C@]3(C)C(=CC[C@@H]4[C@@]5(C)CC[C@H](O)C(C)(C)[C@@H]5CC[C@]43C)[C@@H]2C1 [Compound 4, β-amyrin] | 1220 nM | –
